# In US20050214738A1, “Conditional allele system” (priority 2003, published 2005):
# Target: T1, FRB* (Homo sapiens, UniProt P42345+P62942, K2095P/T2098L/W2101F)
# T1 construct: The minimal FRB domain comprises amino acids 2025-2114 of human mTor; expressed in transfected cells; host or cells: COS-1 cells
# Test: SeAP reporter assay, dimerization of FRB*-VP16 to FKBP3-GAL4DBD in COS-1 cells
# Format: cell-based
# Excerpt: Transcription activation by recruitment of chimeric transcriptional activation and DNA binding domains is described. COS-1 cells were electroporated with […] each of the following expression plasmids (Ho, S. N., Biggar, S. R., Spencer, D. M., Schreiber, S. L., and Crabtree, G. R. “Dimeric ligands define a role for transcriptional activation domains in reinitiation.” (1996) Nature 382, 822-826): pG5IL2SX (drives transcription of bacterial secreted alkaline phosphatase (SeAP) through GAL4 DNA binding […] elements), pBJ5-GF3E (which expresses the GAL4 DNA binding domain fused to three copies of human FKBP12), and pBJ5-FRBVP. (which expresses a FRB fusion with the Herpes Simplex Virus VP16 Activation domain) A FRB*-VP16 fusion protein which consists of modified FRB protein fused to the VP16 activation domain was also used selectively. Transfected cells were distributed equally to 96 well plates and were incubated at 37° C. for 24 to 36 hours before media was supplemented with drug in a dilution curve in which each point is represented in quadruplicate. Cells were incubated at 37° C. for an additional 24 hours followed by a 2-hour treatment at 65° C. to inactivate endogenous phosphatases. Each well was supplemented with 100μL of 1 mM methylumbelliferylphosphate dissolved in 2 M diethanolamine buffered to pH 10.0 with carbonate and incubated at 37° C. for 16 hours. Fluorescence was measured with a Fluoroscan (ICN) plate reader at 355 nm transmission and 455 nm emission using Deltasoft software.
# Drug efficacy was determined in a three-plasmid transcriptional switch reporter assay. ˜106 COS1 cells were coelectroporated with 2 μg of the DNA binding construct pBJ5-Gal4-FKBP(3), 2 μg pBJ5-VP16 (or the relevant mutant FRB) and 2 μg of the Gal4-SeAP reporter. Electroporation details are available upon request. […] SeAP activity was measured by fluorescence with a Spectamax M2 fluorometer (Molecular Devices, Sunnyvale, Calif.) with transmission set at 355 nm and emmission set at 460 nm. Data was analysed with Softmax Pro (Molecular Devices), Microsoft Excel and Prism 3 (GraphPad Software).
# T1 sequence (P42345 2025-2114 K2095P/T2098L/W2101F): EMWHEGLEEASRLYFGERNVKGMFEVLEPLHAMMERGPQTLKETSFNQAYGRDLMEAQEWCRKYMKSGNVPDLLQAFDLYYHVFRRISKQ
# T1 sequence (P62942 whole entry, the tested form may be a part): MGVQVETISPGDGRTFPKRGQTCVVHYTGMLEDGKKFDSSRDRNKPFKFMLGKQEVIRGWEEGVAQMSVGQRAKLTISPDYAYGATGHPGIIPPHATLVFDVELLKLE
substance,measurement,setting,value
C20-(R or S)-methallylrapamycin [C20-MaRap],Kd,FRB*,3.1 nM
same,EC50,"FRB*(PLF)-VP16, ±95% confidence intervals",3.1 ± 0.36 nM
